{
  "source": "patent US20120083471A1",
  "about": "“Novel Compounds, Pharmaceutical Compositions Containing Same, Methods of Use for Same, and Methods for Preparing Same” (priority 2008, published 2012)",
  "key": {"3T3-L1 adipocytes": {"tested_on": "3T3-L1 adipocytes", "test": "Acylglyceride synthesis in 3T3-L1 adipocytes ([14C]palmitate labelling, TLC)", "format": "cell-based, mouse", "settings": "for pIC50: Mus musculus, 3T3-L1 adipocytes 7 days post-differentiation, 18 h treatment, linear regression, n=3", "protocol": "3T3-L1 Adipocytes 3T3-L1 cells were differentiated into adipocytes as described 34. Seven days post-differentiation, cells were treated with FSG67 at indicated concentrations for 18 h, then labeled with [14C]palmitate for 2 h. Following Folch extraction, lipids were subjected to polar and non-polar thin-layer chromatography 35. Triglyceride and phosphatidylcholine fractions were quantified with phosphorimaging (Storm 840, Molecular Dynamics, Piscataway, N.J.).\nMouse 3T3-L1 adipocytes were used to test the effect FSG67 on acylglyceride synthesis in vitro. […] As phosphatidylcholine was the predominant phospholipid synthesized in the 3T3-L1 adipocytes, it is representative of overall cellular phospholipid synthesis. […] Note the decrease in lipid droplets in the FSG67 treated cells compared to vehicle treated controls. Thus, FSG67 inhibits cellular acylglyceride synthesis with an IC50 similar to its inhibition of GPAT activity in mitochondrial preparations."}, "DIO mice [1]": {"tested_on": "DIO mice", "test": "Chronic 20 d FSG67 treatment of DIO mice, reversibility of weight loss", "format": "in vivo, mouse", "source_text": "DIO and lean mouse models. All animal experimentation was done in accordance with guidelines on animal care and use as established by the Johns Hopkins University School of Medicine IACUC. DIO C57BL6J male mice were obtained from Jackson Laboratory (Bar Harbor, ME) and fed a synthetic diet comprised of 60% calories from fat, 20% from carbohydrate, and 20% from protein (5.2 kcal/g) post-weaning through the experimental procedures (D12492i, Research Diets, Inc., New Brunswick, N.J.). For lean animal studies, twelve-week old C57BL6J male mice (Jackson Laboratory, Bar Harbor, Me.) were fed rodent chow comprised of 13% calories from fat, 58% from carbohydrate, and 29% from protein (4.1 kcal/g) (Prolab RMH 2500, PMI Nutrition International Inc., Brentwood, Mo.). Mice were maintained in 12 hr light-dark cycle at 25° C. for 1 week for acclimatization prior to treatment. In all studies, FSG67 (FASgen, Inc., Baltimore, Md.) was dissolved in RPMI 1640 (Invitrogen, Carlsbad, Calif.).\n(§1) For acute studies, 6 DIO or lean mice were treated with a single dose of FSG67 (20 mg/kg, i.p.) approximately 3 hrs past lights-on. Animal weights and food consumption were measured 18 h after treatment. Following euthanization, the hypothalmuses were harvested to measure orexigenic and anorexigenic neuropeptide gene expression. In the chronic studies, DIO mice, 4-10 animals per group, were treated daily with FSG67 (5 mg/kg, i.p.) or with RMPI vehicle for the days indicated. Body weight and food intake were measured daily. In one study, a cohort of mice was pair-fed with amounts consumed by the FSG67-treated animals and mice were monitored with indirect calorimetry (Oxymax Equal Flow System®, Columbus Instruments, Columbus, Ohio). Measurements of VO2 (ml/kg/hr) and VCO2 (ml/kg/hr) were performed and recorded every 15 min. The respiratory exchange ratio (RER) was calculated by Oxymax software, version 5.9, and is defined as ratio of VCO2 to VO2 33. After completion of the treatment course, animals were euthanized by CO2 inhalation 4 hrs following the final dose of FSG67. Tissues were harvested immediately for RNA extraction; serum was collected and analyzed for glucose, cholesterol, and triglyceride measurements (Bioanalytics, Gaithersburg, Md.). Fresh liver tissue was snap frozen in liquid N2, sectioned, and stained with hematoxylin and Oil Red O to visualize triglyceride droplets.\nThe first chronic treatment experiment was designed to test if weight loss induced by FSG67 was reversible. Four DIO mice per group were treated with FSG67 or vehicle for 20 days. For the entire 32 d trial, weight and food consumption were recorded daily until the FSG67 treated animals regained their original weight. During FSG67 treatment (days 0-20), the mice lost 10.3±0.6% of their body mass while controls gained 4.0±0.5% (p<0.0001, 2-way ANOVA) (FIG. 12a). Average food consumption was reduced during FSG67 treatment (2.6±0.1 g/d, days 1-20) compared to vehicle controls (3.1±0.1 g) (p=0.0008, 2-way ANOVA) (FIG. 12b). Following cessation of treatment, food consumption increased in the FSG67 treatment group to an average of 3.5±0.1 g/d (days 21-32) representing a significant increase in food intake compared to vehicle controls 3.2±0.1 g/d (p=0.006, 2-way ANOVA). The FSG67 treated animals achieved their average pre-treatment weight 11 days following termination of treatment (FIG. 12a)."}, "DIO mice [2]": {"tested_on": "DIO mice", "test": "Chronic 16 d FSG67 treatment of DIO mice with indirect calorimetry and pair-fed group", "format": "in vivo, mouse", "settings": "5 mg/kg ip daily", "protocol": "as §1\nIn the second chronic treatment study, indirect calorimetry was utilized to study changes in metabolism during GPAT inhibition. DIO mice (8 per group) were treated with FSG67 (5 mg/kg, ip), or pair-fed to FSG67 treated animals. Indirect calorimetry was utilized to measure changes in oxygen consumption (VO2) and respiratory exchange ratio (RER) between pair-fed and treated animals. After 16 days of treatment, the FSG67 treated mice lost 9.5±0.6% of body mass, pair-fed lost 5.5±0.9%, while vehicle controls gained 3.5±1.3% (FIG. 12c). The weight loss in the FSG67 treated animals was significant compared to both vehicle controls and pair-fed animals (p<0.0001, 2-way ANOVA). […] RER was reduced in FSG67 treated mice (0.732±0.002) compared to pair-fed (0.782±0.006) (p<0.0001, 2-way ANOVA) (FIG. 12f) indicating increased use of fatty acids for fuel in the FSG67 treated animals. The combination of increased VO2 and reduced RER in the FSG67 treated animals are consistent with increased fatty acid oxidation and energy utilization which likely contribute to their reduced body mass compared to the pair-fed controls."}, "DIO mice [3]": {"tested_on": "DIO mice", "test": "Acute single-dose FSG67 treatment of DIO mice (body weight, food intake)", "format": "in vivo, mouse", "settings": "single 20 mg/kg ip", "source_text": "DIO and lean mouse models. All animal experimentation was done in accordance with guidelines on animal care and use as established by the Johns Hopkins University School of Medicine IACUC. DIO C57BL6J male mice were obtained from Jackson Laboratory (Bar Harbor, ME) and fed a synthetic diet comprised of 60% calories from fat, 20% from carbohydrate, and 20% from protein (5.2 kcal/g) post-weaning through the experimental procedures (D12492i, Research Diets, Inc., New Brunswick, N.J.). […]\nFor acute studies, 6 DIO or lean mice were treated with a single dose of FSG67 (20 mg/kg, i.p.) approximately 3 hrs past lights-on. Animal weights and food consumption were measured 18 h after treatment. […] Body weight and food intake were measured daily. In one study, a cohort of mice was pair-fed with amounts consumed by the FSG67-treated animals and mice were monitored with indirect calorimetry (Oxymax Equal Flow System®, Columbus Instruments, Columbus, Ohio). Measurements of VO2 (ml/kg/hr) and VCO2 (ml/kg/hr) were performed and recorded every 15 min. The respiratory exchange ratio (RER) was calculated by Oxymax software, version 5.9, and is defined as ratio of VCO2 to VO2 33. […] Tissues were harvested immediately for RNA extraction; serum was collected and analyzed for glucose, cholesterol, and triglyceride measurements (Bioanalytics, Gaithersburg, Md.). […]"}},
  "note": "pIC50: −log10 of the molar value. Entries after “also recorded” stand apart in the source; their conditions may differ. Like-named read-outs stand apart in the source and are kept apart here.",
  "data": [
    {"compound": "CCCCCCCCCS(=O)(=O)Nc1ccccc1C(=O)O", "note": "[Compound 15g, 2-(Nonylsulfonamido)benzoic acid]", "values": [
      {"measurement": "triglyceride / lipid droplet accumulation", "setting": "3T3-L1 adipocytes; 3T3-L1 adipocytes, 48 h following treatment, photomicrographs, listed as FSG67", "value": "dose-dependent reduction; also recorded: reduction in lipid droplet accumulation"},
      {"measurement": "pIC50", "setting": "3T3-L1 adipocytes; read-out: IC50 for cellular triglyceride synthesis", "value": 4.47},
      {"measurement": "pIC50", "setting": "3T3-L1 adipocytes; read-out: IC50 for phosphatidylcholine synthesis", "value": 4.44},
      {"measurement": "time to pre-treatment weight following termination of treatment", "setting": "DIO mice [1]", "value": 11, "unit": "days"},
      {"measurement": "body mass lost during treatment", "setting": "DIO mice [1]; 5 mg/kg ip daily, 20 d", "value": "10.3±0.6", "unit": "%"},
      {"measurement": "food consumption during treatment", "setting": "DIO mice [1]; 5 mg/kg ip daily, days 1-20", "value": "2.6 ± 0.1", "unit": "g/day"},
      {"measurement": "food consumption following cessation of treatment", "setting": "DIO mice [1]; days 21-32", "value": "3.5 ± 0.1", "unit": "g/day"},
      {"measurement": "day of return to original weight", "setting": "DIO mice [1]; treatment terminated at day 20", "value": 32, "unit": "days"},
      {"measurement": "average daily food consumption", "setting": "DIO mice [2]; 16 days", "value": "2.0 ± 0.1", "unit": "g/day"},
      {"measurement": "body mass lost", "setting": "DIO mice [2]; 16 days", "value": "9.5±0.6", "unit": "%"},
      {"measurement": "reduction of average daily food consumption vs vehicle", "setting": "DIO mice [2]; 16 days", "value": 33, "unit": "%"},
      {"measurement": "average RER", "setting": "DIO mice [2]; indirect calorimetry", "value": "0.732±0.002"},
      {"measurement": "average VO2, % of pre-treatment value", "setting": "DIO mice [2]; indirect calorimetry", "value": "106.5±1.1", "unit": "%"},
      {"measurement": "food consumption", "setting": "DIO mice [3]", "value": "0.5 ± 0.1", "unit": "g"},
      {"measurement": "food consumption, % of vehicle control", "setting": "DIO mice [3]", "value": 41.6, "unit": "%"}
    ]}
  ]
}
